The values below come from PubChem BioAssay (NCI).

Assay in all cases: NCI anticancer screen, dose series, 48 h
The subject of assay [1] is EKVX NSCLC.
Assay [2] has as its system HCT-116 colon.
Assay [3] concerns IGROV1 ovarian.
For assay [4], the system named is NCI-H522 lung.
The subject of assay [5] is OVCAR-3 ovarian.
Assay [6] has as its system RXF 393 renal.
In assay [7] the test system is SK-MEL-5 melanoma.
In assay [8] the test system is SW-620 colon.
Assay [9] concerns RPMI-8226 leukemia.
For assay [10], the system named is NCI/ADR-RES ovarian.

Molecules are shown by their SMILES.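 Briefly, cells in 96-well plates were exposed to five compound concentrations for 48 h, and endpoints were estimated by linear interpolation. Abbreviation: GI50, concentration required for 50% inhibition of growth. At the TGI there is no net growth.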 A value given as a limit tells only on which side of the number the result lay.

As for `CC1C(c2ccccc2)N(C)C(c2ccccc2)C(C)C1(O)c1ccccc1` (stereo not drawn), the TGI in [1], in [2], in [3], in assay [4], in [5] and in assay [6] was greater than 100 µM in each case. The TGI in [7] and in [8] was greater than 100 µM each time.

Consider `C/C(=N\N=C(N)N)C(CN1CCOCC1)C(c1ccccc1)c1c(O)c2ccccc2oc1=O` (stereo not drawn), for which the TGI in [1], in [2], in assay [3], in assay [4], in assay [5] and in assay [9] was greater than 100 µM throughout. Further, the TGI in assay [6], in [7] and in assay [8] was greater than 100 µM in each case.

Take `COc1cc(/C=C2\[C@@H]3NC(Cc4c(OC)c(C)c(OC)c(OC)c43)C(=O)N2Cc2ccccc2)c(OC)c(C)c1OC`: the TGI is 90.5 µM in assay [1]; greater than 100 µM in assay [2]; greater than 100 µM in assay [3]; 55 µM in assay [4]; greater than 100 µM in assay [5]; 91.8 µM in assay [9]. The TGI is 72.8 µM in [6], greater than 100 µM in assay [7] and greater than 100 µM in assay [8].

Turning to `O=C(CC12C3C4C1C1C2C3C41CC(=O)NO)NO` (stereo not drawn), the TGI in [1] is greater than 100 µM; in [2], greater than 100 µM; in assay [4] it was 77.4 µM; in assay [5], greater than 100 µM; in assay [9] it was greater than 100 µM; in assay [7], greater than 100 µM. For the same molecule, the TGI in assay [8] was greater than 100 µM.

For the molecule `OC1OCC(COc2cc(Cl)c(Cl)cc2Cl)OC1O` (stereo not drawn), the TGI in [1] is 81.9 µM; in [2], 42.1 µM; in assay [3] it was greater than 100 µM; in [4], 70.8 µM; in [5], 69.5 µM; in assay [9], 77.9 µM. In addition, the results for the TGI in assay [7] and in assay [8] were greater than 100 µM and 47.7 µM, respectively.

Take `CCOC(=O)C1=C(Nc2ccc(OC)cc2)C(N)=NC1=N`: the GI50 in assay [2] was 2.45 µM; in assay [3], 5.5 µM; in [4], 3.12 µM; in assay [10], 3.38 µM; in [5], 2.49 µM; in assay [6] it was 1.72 µM. The results for the GI50 in assay [7] and in assay [8] were 0.57 µM and 3.95 µM, respectively. Further, the TGI in assay [2] was greater than 100 µM; in assay [3], greater than 100 µM; in assay [4], greater than 100 µM; in [10] it was greater than 100 µM; in [5], 6.5 µM; in assay [6], 6.47 µM. Besides, the figures for the TGI in assay [7] and in [8] were 55.8 µM and greater than 100 µM, respectively.

For `CC1(C)CC(=O)C(CC2C(=O)CCCC2=O)C(=O)C1`, the TGI in assay [1], in assay [2], in assay [3], in [4], in assay [5] and in assay [6] was greater than 100 µM in each case. Further, the TGI in assay [7] and in assay [8] was greater than 100 µM each time.

Turning to `C=CCc1c(O)c(C(=O)/C=C/c2ccc(Cl)cc2)c(OC)c2ccoc12`, the GI50 in assay [1] was 7.23 µM; in assay [2] it was 2.74 µM; in assay [3], 3.46 µM; in assay [4] it was 1.88 µM; in assay [10], 2.23 µM; in [5] it was 1.97 µM. The GI50 in assay [6] was 1.72 µM; in assay [7], 2.07 µM; in assay [8] it was 2.56 µM. Besides, the TGI in [1] is 21.5 µM; in assay [2], 9 µM; in [3], 14.9 µM; in [4] it was 5.71 µM; in assay [10], 5.86 µM; in [5], 4.41 µM. In addition, the TGI in assay [6] amounted to 3.6 µM; in [7], 5.18 µM; in assay [8], 6.86 µM.

Take `CSc1ccc(N2C(=O)C3c4[nH]c5ccccc5c4C4CCC(C(C)(C)C)CC4C3C2=O)cc1` (stereo not drawn): the TGI in assay [1] is 44.2 µM; in assay [2], 18 µM; in [3], 32 µM; in assay [4] it was 40.4 µM; in [5], greater than 100 µM; in assay [9] it was greater than 100 µM. Besides, the TGI in assay [6] is 47.1 µM; in assay [7] it was 58.5 µM; in assay [8], greater than 100 µM.

As to `CC1(c2ccc(F)cc2)C2C(=O)NC(=O)C1C(=O)NC2=O` (stereo not drawn), the TGI in assay [1], in assay [3], in assay [4], in assay [5], in assay [9] and in assay [6] was greater than 100 µM each time. The TGI in assay [7] and in [8] was greater than 100 µM each time.

With `CCN1CCN(C(=O)[C@]23CC[C@@H](C)[C@H](C)[C@@H]2C2=CC[C@@H]4[C@@]5(C)CCC(=O)C(C)(C)[C@@H]5CC[C@@]4(C)[C@]2(C)CC3)CC1`, the GI50 was 0.916 µM in assay [1]; 0.798 µM in [2]; 1.4 µM in assay [3]; 0.831 µM in assay [4]; 1.08 µM in assay [10]; 1.1 µM in assay [5]. Besides, the figures for the GI50 in [6], in assay [7] and in assay [8] were 0.822 µM, 0.888 µM and 0.902 µM, respectively. Besides, the TGI in assay [1] came out at 2.42 µM; in assay [2] it was 1.57 µM; in assay [3], 4.85 µM; in assay [4] it was 1.75 µM; in assay [10], 3.24 µM; in assay [5] it was 2.44 µM. The values for the TGI in [6], in [7] and in assay [8] were 1.74 µM, 1.6 µM and 1.76 µM, respectively.

In the case of `O=C1c2ccccc2C(=O)N1CC#CCO`, the TGI in assay [1], in assay [2], in [4], in assay [5], in assay [6] and in [7] was greater than 100 µM each time. The molecule further gave a TGI in assay [8] greater than 100 µM.

`CCO/C=C\C12CCCC1NC(c1ccccc1)(c1ccccc1)O2` (stereo not drawn): the TGI in [1] was greater than 100 µM; in assay [2], greater than 100 µM; in assay [3], 71.1 µM; in [4], 83.3 µM; in assay [5], 55.7 µM; in assay [6], 81.3 µM. The TGI in assay [7] is 31.1 µM; in [8] it was greater than 100 µM.
